For 4 compounds, IC50 results are on record in ChEMBL document CHEMBL1926524, “Cyclolobatriene, a novel prenylated germacrene diterpene, from the soft coral Lobophytum pauciflorum” (Bioorg Med Chem, 2012).

In the assay the test system is A-431. The assay is described as follows: Cytotoxicity against human A431 cells after 4 days by coulter counting. The format is functional, cell-based. The settings on record: A-431, 96 h.

In turn, `C/C1=C\C[C@@H](/C(C)=C/C=C/C(C)(C)O)CC/C(C)=C/CC1` [EUNICOL] returned an IC50 of 0.35 µM.
In the case of `C/C1=C\C[C@@H](C2=CC[C@H](C(C)(C)O)OC2)CC/C(C)=C/CC1` [CYCLOLOBATRIENE], the concentration for half-maximal inhibition (IC50) stood at 0.64 µM.
Regarding `C=C[C@@]1(C)CC[C@H](C2=CC[C@H](C(C)(C)O)OC2)C[C@@H]1C(=C)C` [LOBATRIENE], it took 0.41 µM to reach half-maximal inhibition (IC50).
`C=C[C@@]1(C)CC[C@H](/C(C)=C/C=C/C(C)(C)O)C[C@@H]1C(=C)C` [FUSCOL] had an IC50 of 0.52 µM.
